Laboratory results reported in patent publication US20230348437A1, “COMPOUNDS, COMPOSITIONS AND METHODS” (Denali Therapeutics Inc., priority 2020, published 2023).

Assays:
[1] = system: NLRP3 (IL-1β release from THP-1 cells); experiment: IL-1β detection in IFN-γ differentiated THP-1 cells, LPS induction and ATP, 96 well format; type: cell-based; conditions: Homo sapiens, IFN-γ 25 ng/mL, LPS 50 ng/mL, ATP 5 mM, IL-1β ELISA, read-out: Activity (IC50 class)
Method: (§1) Compounds as provided herein were tested in the following assay. Cell culture medium employed contained RPMI 1640 medium (89%), FBS (10%), Pen/Strep (1%), and 2-mercaptoethanol (0.05 mM). Freezing medium was made up of 90% FBS and 10% DMSO. THP-1 cells were removed from the liquid nitrogen and placed into a 37° C. water bath to thaw, until signs of ice dissipated. The cells were then added to 9 mL of warm cell culture medium and centrifuged for 5 minutes at 1000 rpm. The supernatant was discarded, and the cells were resuspended in new cell culture medium. The THP-1 cells were then split and cultured in the cell culture medium, being passaged every 2-3 days (5×10^5 cells/mL passaged every two days, 3×10^5 cells/mL passaged every three days). Cell density was maintained between 5×10^5-1.5×10^6 viable cells/mL.
To freeze, cells were resuspended with fresh freezing medium, adjusting the cell density to between 3×10^6-10×10^6 cells/mL. The cell suspension was partitioned into 1 mL aliquots per vial, and the vials were transferred to a -80° C. freezer. After one day at -80° C., the cell vials were transferred to liquid nitrogen freezer for storage.
PBST solution was prepared by mixing 3600 mL of water, 400 mL of 10X PBS, and 4 mL of Tween 20. IFN-γ solution was reconstituted with 100 µL of water to obtain a 1 mg/mL solution, which was then diluted with 0.1 % BSA to provide a 100 ng/mL solution. The IFN-γ solution was stored at -20° C. LPS was reconstituted with 1 mL of PBS solution to obtain a 1 mg/mL stock solution, which was further diluted to 50 ng/mL with serum-free medium. The LPS solution was stored at 4° C.
The 96 well plates were then incubated at 37° C. under a humidified atmosphere of 5% CO2 for 24 h.
LPS induction: When IFN-γ treatment was completed, the supernatants were discarded by hand. 100 µL of a 1X solution of LPS in serum-free medium (50 ng/mL) was added. The plates were incubated in a 37° C. incubator under a humidified atmosphere of 5% CO2 for 4 h. Sample compounds were dissolved in DMSO and the compound solutions were dispensed to the wells using a Tecan D300e digital dispenser. The final concentration of DMSO for each well was 0.5%. The plates were then incubated at 37° C. under a humidified atmosphere of 5% CO2 for 1 h. 20 µL of a 6X solution of ATP was added (final concentration per well: 5 mM), and the plates incubated at 37° C. under a humidified atmosphere of 5% CO2 for 1 h. The supernatants were then collected and analyzed using an IL-Iβ detection kit. If needed, the test samples could be stored at -20° C. until analyzed.
Compound dilution: Compound solution source plates (20 µL of a 10 mM solution of each compound was delivered to the specified wells and stored in a nitrogen cabinet until tested.
Coat Elisa plate: The captured antibody (mAb Mt175) was diluted in PBS to a concentration of 2 µg/mL, and then used to coat the ELISA plate (SIGMA-P6366) overnight at 4° C.
The antibody coat was discarded and the plate was washed 4 times with PBST. The plate was blocked by adding 25 µL/well of blocking buffer (LiCor-927-40000) with 0.1% Tween 20, then incubated for 1 h at room temperature. The blocking buffer was then discarded and the plate was washed 4 times with PBST.
One hour before test sample addition, the sample plates were allowed to thaw at room temperature, centrifuged at 1000 rpm for 1 minute, and shaken for 30 seconds. 25 µL/well of the test samples were transferred to the ELISA plate, and the plate was incubated for 2 h at room temperature.
The test samples were discarded and the ELISA plate was washed 4 times with PBST. 15 µL/well of mAb7P10-biotin at 0.5 µg/mL (1:1000) in blocking buffer was then added to the ELISA plate and it was incubated for 1 h at room temperature.
The antibody was discarded and the ELISA plate was washed 4 times with PBST. Then 15 µL/well of streptavidin-HRP diluted 1:1000 in blocking buffer was added to the ELISA plate and it was allowed to incubate for 1 h at room temperature.

[2] = system: NLRP3 (IL-1β secretion from THP-1 cells); experiment: IL-1β secretion assay in 384-well plates, PMA differentiated THP-1 cells, LPS and nigericin stimulation; type: cell-based; conditions: Homo sapiens; THP-1 cells, PMA 5 ng/mL, LPS 25 ng/mL, nigericin, IL-1β ELISA, 384-well; read-out: Activity
Method: as §1, with “Cell culture medium employed contained RPMI 1640 medium (89%), FBS (10%), Pen/Strep (1%), and 2-mercaptoethanol (0.05 mM).” left out
PMA was dissolved in DMSO to make a stock solution at 5 mg/mL and stored in 10 µl aliquots at -20° C. for single use. PMA is added to normal growth medium. LPS was diluted with 1 mL of water solution to provide a 1 mg/mL stock solution and stored in 15 µl aliquots at -20° C. for single use. Nigericin is diluted in ice cold 100% ethanol to 5 mg/mL (6.7 mM) and stored in 75 µL aliquots at -20° C. for single use. […] The two control conditions used to qualify and normalize test compound dose-response curves were as follows: High Control = 25 ng/mL LPS, 5 µM Nigericin, 0.5% DMSO, Low Control = 25 ng/mL, LPS, 0.5% DMSO.
THP-1 cells were diluted to provide a suspension at a concentration of 1.0×10^6 cells/mL with the total volume of suspension required to enable the desired number of assay plates. The growth media was supplemented with PMA (5 ng/mL final concentration) and the cells were incubated at 37° C. under a humidified atmosphere of 5% CO2 for 40 h.
All media was carefully aspirated from each culture flask. The cells were washed carefully with 1x DPBS. The cells were then briefly digested with trypsin LE for 5 minutes at 23° C. and immediately resuspended in cell growth media. After resuspension, the cells were centrifuged at 1000 rpm for 3 minutes and the supernatant was discarded. The cells were resuspended in DPBS and once again centrifuged at 1000 rpm for 5 minutes. The supernatant was discarded and the cell pellet was resuspended in serum-free media supplemented with LPS (25 ng/mL final concentration) to enable the distribution of 30 K THP-1 cells within 45 µL of media into each well of 384-well PDL-coated plates. The 384-well plates were then incubated at 37° C. under a humidified atmosphere of 5% CO2 for 2 h. Following this period, test compounds were dispensed by Tecan across the desired concentration range with all wells normalized to a final 0.5 % DMSO concentration. The plates were then incubated at 37° C. under a humidified atmosphere of 5% CO2 for 1 h. Following this period, 5 µL of the […] nigericin stock solution was added to each of the appropriate wells and plates were centrifuged at 1000 rpm for 30 seconds. The plates were the immediately reintroduced to the incubator at 37° C. under a humidified atmosphere of 5% CO2 for 2 h. After this time, 35 µL/well of supernatant was collected and transferred into v-bottom plate and centrifuged at 1000 rpm for 1 minute. These supernatant aliquots were analyzed using an IL-Iβ detection kit as described below. If needed, the test samples could be snap frozen and stored at -80° C. until analyzed.
To prepare each ELISA plate, capture antibody (mAb Mt175) was diluted with PBS to a final concentration of 2 µg/mL and then 20 µL of this solution was added to each well of the ELISA plate. Each plate was allowed to incubate overnight at 4° C. The next day, the capture antibody solution was removed and discarded. […] Each ELISA plate was then allowed to incubate for 1 hour at 23° C. After this time, the blocking buffer was removed and discarded. Each ELISA plate was washed 4 times with PBST. During this time, the v-bottomed plates containing the supernatant aliquots from the assay run were centrifuged at 300 g for 5 minutes before transferring 15 µL/well of the supernatant sample to each ELISA plate. […]

Compound	IC50 [1] [µM]	IC50 [2] [µM]
CC(C)c1nn(CC(=O)N[C@H]2C[C@@](C)(O)C2)c(=O)cc1-c1cccc(F)c1 [Example 12, 2-(4-(3-fluorophenyl)-3-isopropyl-6-oxopyridazin-1(6H)-yl)-N-(cis-3-hydroxy-3-methylcyclobutyl)acetamide]	< 10	1.66
CC(C)c1nn(CC(=O)N[C@H]2C[C@@](C)(O)C2)c(=O)nc1-c1ccccc1 [Example 20, N-(cis-3-hydroxy-3-methylcyclobutyl)-2-(6-isopropyl-3-oxo-5-phenyl-1,2,4-triazin-2(3H)-yl)acetamide]	< 10	24
CC(C)c1nn(CC(=O)N[C@H]2C[C@@](C)(O)C2)c(=O)cc1-c1cccc(C(F)(F)F)c1 [Example 13, N-(cis-3-hydroxy-3-methylcyclobutyl)-2-(3-isopropyl-6-oxo-4-(3-(trifluoromethyl)pheny 1)pyridazin-1(6H)-yl)acetamide]	< 10	21.8
CC(C)c1nn(CC(=O)N[C@H]2C[C@@](C)(O)C2)c(=O)cc1-c1cccc(C#N)c1 [Example 8, 2-(4-(3-cyanophenyl)-3-isopropyl-6-oxopyridazin-1(6H)-yl)-N-(cis-3-hydroxy-3-methylcyclobutyl)acetamide]	10 to 15	24.5
CC(C)c1nn(CC(=O)N[C@H]2C[C@@](C)(O)C2)c(=O)cc1-c1ccccc1F [Example 11, 2-(4-(2-fluorophenyl)-3-isopropyl-6-oxopyridazin-1(6H)-yl)-N-(cis-3-hydroxy-3-methylcyclobutyl)acetamide]	< 10	2.88
Cc1cccc(-c2cc(=O)n(CC(=O)N[C@H]3C[C@@](C)(O)C3)nc2C(C)C)c1 [Example 9, N-(cis-3-hydroxy-3-methylcyclobutyl)-2-(3-isopropyl-6-oxo-4-(m-tolyl)pyridazin-1(6H)-yl)acetamide]	< 10	2.27
C[C@]1(O)C[C@@H](NC(=O)Cn2nc(Cl)c(-c3ccccc3)cc2=O)C1 [Example 18, 2-(3-chloro-6-oxo-4-phenylpyridazin-1(6H)-yl)-N-(cis-3-hydroxy-3-methylcyclobutyl)acetamide]	> 15	50
CC(C)c1nn(CC(=O)Nc2ncncc2F)c(=O)cc1-c1cccc(Cl)c1 [Example 6, 2-(4-(3-chlorophenyl)-3-isopropyl-6-oxopyridazin-1(6H)-yl)-N-(5-fluoropyrimidin-4-yl)acetamide]	< 10	0.535
CC(C)c1nn(CC(=O)N[C@H]2C[C@@](C)(O)C2)c(=O)cc1-c1cccc(Cl)c1 [Example 2, 2-(4-(3-chlorophenyl)-3-isopropyl-6-oxopyridazin-1(6H)-yl)-N-(cis-3-hydroxy-3-methylcyclobutyl)acetamide]	< 10	1.49
COc1cccc(-c2cc(=O)n(CC(=O)N[C@H]3C[C@@](C)(O)C3)nc2C(C)C)c1 [Example 7]	< 10	7.06
